Source: ChEMBL document CHEMBL1137697, “In vitro and in vivo antitrypanosomatid activity of 5-nitroindazoles” (Eur J Med Chem, 2009)
Activity calls are given as the source filed them. The rule behind the calls is not given here.

Tested on: Leishmania braziliensis
Assay: Antileishmanial activity against Leishmania braziliensis MHOM/BR/75/M2903 promastigote assessed as lysis at 100 ug/mL after 72 hrs
Assay type: functional
Conditions: not given

Row | Compound | Activity [%]
1 | O=[N+]([O-])c1ccc2c(c1)c(O)nn2CCCCCN1CCCCC1 | <60
2 | O=[N+]([O-])c1ccc2c(c1)c(OCc1ccccc1)nn2CCCCCN1CCCCC1 | 100
3 | N=C(N)c1ccc(OCCCCCOc2ccc(C(=N)N)cc2)cc1 [PENTAMIDINE] | 100
4 | COc1nn(CCOCCN2CCCCC2)c2ccc([N+](=O)[O-])cc12.Cl | <60
5 | CN(C)CCOCCn1nc(OCc2ccccc2)c2cc([N+](=O)[O-])ccc21 | 100
6 | O=[N+]([O-])c1ccc2c(c1)c(O)nn2Cc1ccccc1CN1CCCCC1 | <60
7 | COc1nn(CCCCCN2CCCCC2)c2ccc([N+](=O)[O-])cc12.Cl | <60

Tested on: Trypanosoma cruzi
Assay: Inhibition of respiration in Trypanosoma cruzi Tulahuen 2 assessed as oxygen uptake at 0.543 mM
Assay type: functional
Parameters: scale not given: the % may be the effect or the level left
Conditions: not given

Row | Compound | Activity [%]
8 | CN(C)CCOCCn1nc(OCc2ccccc2)c2cc([N+](=O)[O-])ccc21 | 11

Tested on: Trypanosoma cruzi
Assay: Inhibition of respiration in Trypanosoma cruzi Tulahuen 2 assessed as oxygen uptake at 0.091 mM
Assay type: functional
Parameters: scale not given: the % may be the effect or the level left
Conditions: not given

Row | Compound | Activity [%]
9 | O=[N+]([O-])c1ccc2c(c1)c(OCc1ccccc1)nn2CCCCCN1CCCCC1 | 109

Tested on: Trypanosoma cruzi
Assay: Inhibition of respiration in Trypanosoma cruzi Tulahuen 2 assessed as oxygen uptake at 0.515 mM
Assay type: functional
Parameters: scale not given: the % may be the effect or the level left
Conditions: not given

Row | Compound | Activity [%]
10 | COc1nn(CCOCCN2CCCCC2)c2ccc([N+](=O)[O-])cc12.Cl | 130

Tested on: Trypanosoma cruzi
Assay: Antitrypanosomal activity against Trypanosoma cruzi bloodstream trypomastigote infected in BALB/c mouse assessed as parasitemia at 30 mg/kg, po after 60 days by colorimetric method
Assay type: functional, organism-based
Parameters: dose 30 mg/kg
Conditions: not given

Row | Compound | Activity
11 | COc1nn(CCOCCN2CCCCC2)c2ccc([N+](=O)[O-])cc12.Cl | Active
12 | CN(C)CCOCCn1nc(OCc2ccccc2)c2cc([N+](=O)[O-])ccc21 | Active

Tested on: Trypanosoma cruzi
Assay: Antitrypanosomal activity against Trypanosoma cruzi bloodstream trypomastigote infected in BALB/c mouse assessed as parasitemia at 50 mg/kg, po after 60 days by colorimetric method
Assay type: functional, organism-based
Parameters: dose 50 mg/kg
Conditions: not given

Row | Compound | Activity
13 | O=C(Cn1ccnc1[N+](=O)[O-])NCc1ccccc1 [BENZNIDAZOLE] | Active

Tested on: Trypanosoma cruzi
Assay: Inhibition of respiration in Trypanosoma cruzi Tulahuen 2 assessed as oxygen uptake at 0.362 mM
Assay type: functional
Parameters: scale not given: the % may be the effect or the level left
Conditions: not given

Row | Compound | Activity [%]
14 | CN(C)CCOCCn1nc(OCc2ccccc2)c2cc([N+](=O)[O-])ccc21 | 10

Tested on: Trypanosoma cruzi
Assay: Antitrypanosomal activity against Trypanosoma cruzi bloodstream trypomastigote infected in BALB/c mouse assessed as antibodies at 30 mg/kg, po after 60 days by colorimetric method
Assay type: functional, organism-based
Parameters: dose 30 mg/kg
Conditions: not given

Row | Compound | Activity
15 | COc1nn(CCOCCN2CCCCC2)c2ccc([N+](=O)[O-])cc12.Cl | Active
16 | CN(C)CCOCCn1nc(OCc2ccccc2)c2cc([N+](=O)[O-])ccc21 | Active

Tested on: Trypanosoma cruzi
Assay: Inhibition of respiration in Trypanosoma cruzi Tulahuen 2 assessed as oxygen uptake at 0.426 mM
Assay type: functional
Parameters: scale not given: the % may be the effect or the level left
Conditions: not given

Row | Compound | Activity [%]
17 | CN(C)CCOCCn1nc(OCc2ccccc2)c2cc([N+](=O)[O-])ccc21 | 10

Tested on: Leishmania infantum
Assay: Antileishmanial activity against Leishmania infantum MHOM/FR/91/LEM2259 promastigote assessed as lysis at 100 ug/mL after 72 hrs
Assay type: functional
Conditions: not given

Row | Compound | Activity [%]
18 | O=[N+]([O-])c1ccc2c(c1)c(O)nn2CCCCCN1CCCCC1 | <60
19 | O=[N+]([O-])c1ccc2c(c1)c(OCc1ccccc1)nn2CCCCCN1CCCCC1 | 100
20 | N=C(N)c1ccc(OCCCCCOc2ccc(C(=N)N)cc2)cc1 [PENTAMIDINE] | 100
21 | COc1nn(CCOCCN2CCCCC2)c2ccc([N+](=O)[O-])cc12.Cl | <60
22 | CN(C)CCOCCn1nc(OCc2ccccc2)c2cc([N+](=O)[O-])ccc21 | 100
23 | O=[N+]([O-])c1ccc2c(c1)c(O)nn2Cc1ccccc1CN1CCCCC1 | <60
24 | COc1nn(CCCCCN2CCCCC2)c2ccc([N+](=O)[O-])cc12.Cl | <60

Tested on: Trypanosoma cruzi
Assay: Inhibition of respiration in Trypanosoma cruzi Tulahuen 2 assessed as oxygen uptake at 0.258 mM
Assay type: functional
Parameters: scale not given: the % may be the effect or the level left
Conditions: not given

Row | Compound | Activity [%]
25 | COc1nn(CCOCCN2CCCCC2)c2ccc([N+](=O)[O-])cc12.Cl | 118

Tested on: Trypanosoma cruzi
Assay: Inhibition of respiration in Trypanosoma cruzi Tulahuen 2 assessed as oxygen uptake at 1.030 mM
Assay type: functional
Parameters: scale not given: the % may be the effect or the level left
Conditions: not given

Row | Compound | Activity [%]
26 | COc1nn(CCOCCN2CCCCC2)c2ccc([N+](=O)[O-])cc12.Cl | 155

Tested on: Trypanosoma cruzi
Assay: Inhibition of respiration in Trypanosoma cruzi Tulahuen 2 assessed as oxygen uptake at 1.032 mM
Assay type: functional
Parameters: scale not given: the % may be the effect or the level left
Conditions: not given

Row | Compound | Activity [%]
27 | O=[N+]([O-])c1ccc2c(c1)c(O)nn2Cc1ccccc1CN1CCCCC1 | 109

Tested on: not listed separately
Assay: Toxicity in BALB/c mouse assessed as survival fraction at 30 mg/kg, po after 9 weeks
Assay type: organism-based
Parameters: dose 30 mg/kg, route oral
Conditions: in vivo

Row | Compound | survival at 1512 h [%]
28 | COc1nn(CCOCCN2CCCCC2)c2ccc([N+](=O)[O-])cc12.Cl | 87.5
29 | CN(C)CCOCCn1nc(OCc2ccccc2)c2cc([N+](=O)[O-])ccc21 | 87.5

Tested on: not listed separately
Assay: Toxicity in BALB/c mouse assessed as survival fraction at 50 mg/kg, po after 9 weeks
Assay type: organism-based
Parameters: dose 50 mg/kg, route oral
Conditions: in vivo

Row | Compound | survival at 1512 h [%]
30 | O=C(Cn1ccnc1[N+](=O)[O-])NCc1ccccc1 [BENZNIDAZOLE] | 60

Tested on: Trypanosoma cruzi
Assay: Inhibition of respiration in Trypanosoma cruzi Tulahuen 2 assessed as oxygen uptake at 0.181 mM
Assay type: functional
Parameters: scale not given: the % may be the effect or the level left
Conditions: not given

Row | Compound | Activity [%]
31 | CN(C)CCOCCn1nc(OCc2ccccc2)c2cc([N+](=O)[O-])ccc21 | 66

Tested on: Trypanosoma cruzi
Assay: Inhibition of respiration in Trypanosoma cruzi Tulahuen 2 assessed as oxygen uptake at 0.724 mM
Assay type: functional
Parameters: scale not given: the % may be the effect or the level left
Conditions: not given

Row | Compound | Activity [%]
32 | CN(C)CCOCCn1nc(OCc2ccccc2)c2cc([N+](=O)[O-])ccc21 | 9

Tested on: Trypanosoma cruzi
Assay: Inhibition of respiration in Trypanosoma cruzi Tulahuen 2 assessed as oxygen uptake
Assay type: functional, organism-based
Conditions: not given

Row | Compound | Activity
33 | CN(C)CCOCCn1nc(OCc2ccccc2)c2cc([N+](=O)[O-])ccc21 | Dose-dependent effect

Tested on: Trypanosoma cruzi
Assay: Inhibition of respiration in Trypanosoma cruzi Tulahuen 2 assessed as oxygen uptake at 0.272 mM
Assay type: functional
Parameters: scale not given: the % may be the effect or the level left
Conditions: not given

Row | Compound | Activity [%]
34 | O=[N+]([O-])c1ccc2c(c1)c(OCc1ccccc1)nn2CCCCCN1CCCCC1 | 100

Tested on: Trypanosoma cruzi
Assay: Inhibition of respiration in Trypanosoma cruzi Tulahuen 2 assessed as oxygen uptake at 0.172 mM
Assay type: functional
Parameters: scale not given: the % may be the effect or the level left
Conditions: not given

Row | Compound | Activity [%]
35 | O=[N+]([O-])c1ccc2c(c1)c(OCc1ccccc1)nn2CCCCCN1CCCCC1 | 111

Tested on: Trypanosoma cruzi
Assay: Antitrypanosomal activity against Trypanosoma cruzi bloodstream trypomastigote in mouse blood assessed as lysis of trypomastigotes at 250 ug/mL after 24 hrs relative to control
Assay type: functional
Conditions: not given

Row | Compound | Activity [%]
36 | O=[N+]([O-])c1ccc2c(c1)c(O)nn2CCCCCN1CCCCC1 | 36
37 | O=[N+]([O-])c1ccc2c(c1)c(OCc1ccccc1)nn2CCCCCN1CCCCC1 | 34
38 | COc1nn(CCOCCN2CCCCC2)c2ccc([N+](=O)[O-])cc12.Cl | 85
39 | CN(C)CCOCCn1nc(OCc2ccccc2)c2cc([N+](=O)[O-])ccc21 | 87
40 | O=[N+]([O-])c1ccc2c(c1)c(O)nn2Cc1ccccc1CN1CCCCC1 | 75
41 | COc1nn(CCCCCN2CCCCC2)c2ccc([N+](=O)[O-])cc12.Cl | 100

Tested on: Trypanosoma cruzi
Assay: Antitrypanosomal activity against Trypanosoma cruzi bloodstream trypomastigote in mouse blood after 24 hrs relative to control
Assay type: functional, organism-based
Conditions: not given

Row | Compound | IC50 [µM]
42 | O=[N+]([O-])c1ccc2c(c1)c(OCc1ccccc1)nn2CCCCCN1CCCCC1 | 6.6
43 | COc1nn(CCOCCN2CCCCC2)c2ccc([N+](=O)[O-])cc12.Cl | > 50
44 | CN(C)CCOCCn1nc(OCc2ccccc2)c2cc([N+](=O)[O-])ccc21 | 16.4
45 | O=[N+]([O-])c1ccc2c(c1)c(O)nn2Cc1ccccc1CN1CCCCC1 | > 50

Tested on: Trypanosoma cruzi
Assay: Antitrypanosomal activity against Trypanosoma cruzi bloodstream trypomastigote infected in BALB/c mouse assessed as antibodies at 50 mg/kg, po after 60 days by colorimetric method
Assay type: functional, organism-based
Parameters: dose 50 mg/kg
Conditions: not given

Row | Compound | Activity
46 | O=C(Cn1ccnc1[N+](=O)[O-])NCc1ccccc1 [BENZNIDAZOLE] | Active

Tested on: J774
Assay: Cytotoxicity in mouse J774 cells at 100 ug/mL after 48 hrs
Assay type: cell-based
Conditions: j774, 48 h

Row | Compound | Activity
47 | O=[N+]([O-])c1ccc2c(c1)c(O)nn2CCCCCN1CCCCC1 | Non-toxic
48 | O=[N+]([O-])c1ccc2c(c1)c(OCc1ccccc1)nn2CCCCCN1CCCCC1 | Toxic
49 | COc1nn(CCOCCN2CCCCC2)c2ccc([N+](=O)[O-])cc12.Cl | Non-toxic
50 | CN(C)CCOCCn1nc(OCc2ccccc2)c2cc([N+](=O)[O-])ccc21 | Non-toxic
51 | O=[N+]([O-])c1ccc2c(c1)c(O)nn2Cc1ccccc1CN1CCCCC1 | Non-toxic
52 | COc1nn(CCCCCN2CCCCC2)c2ccc([N+](=O)[O-])cc12.Cl | Toxic

Tested on: J774
Assay: Cytotoxicity in mouse J774 cells at 100 ug/mL after 24 hrs
Assay type: cell-based
Conditions: j774, 24 h

Row | Compound | Activity
53 | O=[N+]([O-])c1ccc2c(c1)c(O)nn2CCCCCN1CCCCC1 | Non-toxic
54 | O=[N+]([O-])c1ccc2c(c1)c(OCc1ccccc1)nn2CCCCCN1CCCCC1 | Toxic
55 | COc1nn(CCOCCN2CCCCC2)c2ccc([N+](=O)[O-])cc12.Cl | Non-toxic
56 | CN(C)CCOCCn1nc(OCc2ccccc2)c2cc([N+](=O)[O-])ccc21 | Non-toxic
57 | O=[N+]([O-])c1ccc2c(c1)c(O)nn2Cc1ccccc1CN1CCCCC1 | Non-toxic
58 | COc1nn(CCCCCN2CCCCC2)c2ccc([N+](=O)[O-])cc12.Cl | Toxic

Tested on: Leishmania amazonensis
Assay: Antileishmanial activity against Leishmania amazonensis MHOM/BR/PH8 promastigote assessed as lysis at 100 ug/mL after 72 hrs
Assay type: functional
Conditions: not given

Row | Compound | Activity [%]
59 | O=[N+]([O-])c1ccc2c(c1)c(O)nn2CCCCCN1CCCCC1 | <60
60 | O=[N+]([O-])c1ccc2c(c1)c(OCc1ccccc1)nn2CCCCCN1CCCCC1 | 100
61 | N=C(N)c1ccc(OCCCCCOc2ccc(C(=N)N)cc2)cc1 [PENTAMIDINE] | 100
62 | COc1nn(CCOCCN2CCCCC2)c2ccc([N+](=O)[O-])cc12.Cl | <60
63 | CN(C)CCOCCn1nc(OCc2ccccc2)c2cc([N+](=O)[O-])ccc21 | 100
64 | O=[N+]([O-])c1ccc2c(c1)c(O)nn2Cc1ccccc1CN1CCCCC1 | <60
65 | COc1nn(CCCCCN2CCCCC2)c2ccc([N+](=O)[O-])cc12.Cl | <60
